Source: patent US20220313650A1, “METHODS FOR TREATING NEURODEVELOPMENTAL DISORDERS” (The Broad Institute, Inc., priority 2019, published 2022)
“Also recorded” adds a separate entry of the source.

Assays:
WT TRN neurons = test: Whole-cell patch-clamp rebound burst firing in acute brain slices, WT mice; assay type: cell-based
Method: (§1) For conducting slice electrophysiology analysis, whole-cell patch-clamp recordings were performed using horizontal slices for the rebound bursting assays and angled-coronal thalamocortical slices for the synaptic optogenetics experiments (Agmon et al., 1991). 21-35 day old male C57BL6 mice and Ptchd1 Y/− (knockout) mice were used. Animals were transcardially perfused under isoflurane anesthesia with an ice-cold cutting solution (194 mM Sucrose, 30 mM NaCl, 4.5 mM KCl, 1.2 mM NaH2PO4, 10 mM Glucose, 2 mM MgCl2, 0.2 mM CaCl2, and 26 mM NaHCO3). Mice were then decapitated and the brains were carefully dissected out. Both cerebellum and olfactory bulb were removed from the brain and were placed and glued onto the stage of a Leica Vibratome with the ventral surface down and the pial surface towards the blade. 250 micron thick slices containing the TRN were then collected and recovered in regular artificial cerebrospinal fluid (aCSF; 119 mM NaCl, 2.3 mM KCl, 1 mM NaH2PO4; 11 mM Glucose, 1.3 mM MgCl2, 2.5 mM CaCl2), 26 mM NaHCO3) heated to 32° C. for 10 minutes and then at room temperature for at least 1 hr. All buffers were continuously bubbled with 95% O2/5% C02. Slices were then transferred to a submersion recording chamber where they were perfused with aCSF at a rate of 2 ml/min at room temperature. Patch recording pipettes were pulled using a Flaming/Brown micropipette puller (Sutter Instruments) and Borosilicate glass (KG33, King Precision Glass). The DC resistances were ˜4-6 MΩ. Potassium methanesulfonate based internal solution (140 mM KMeSO3; 10 mM KCl; 10 mM HEPES; 0.1 mM EGTA; 4 mM Mg-ATP; 0.2 mM Na-GTP; 10 mM hosphocreatine) was used. Neurons were visualized using infrared differential interference contrast (IR-DIC) microscopy (Olympus, BX51W1) with an upright microscope digital camera.
The recordings were made with a microelectrode amplifier with bridge and voltage clamp modes of operation (Multiclamp 700B, Molecular Devices, San Jose, Calif., USA). Signals were low-pass filtered at 2 kHz and sampled at 10-20 kHz with a Digidata 1440A (Molecular Devices, San Jose, Calif., USA). Data were stored on a computer for subsequent off-line analysis. Cells with the series resistance (Rs, typically 8-12 MΩ) changed by >20% were excluded for data analysis. In addition, cells with Rs more than […] at any time during the recordings were discarded.

Ptchd1 KO TRN neurons = test: Whole-cell patch-clamp rebound burst firing in acute brain slices, Ptchd1 KO mice; assay type: cell-based; conditions: LY379268 1 μM, holding potentials −85 mV to −50 mV
Method: as §1, with “Patch recording pipettes were pulled using a Flaming/Brown micropipette puller (Sutter Instruments) and Borosilicate glass (KG33, King Precision Glass). The DC resistances were ˜4-6 MΩ. Potassium methanesulfonate based internal solution (140 mM KMeSO3; 10 mM KCl; 10 mM HEPES; 0.1 mM EGTA; 4 mM Mg-ATP; 0.2 mM Na-GTP; 10 mM hosphocreatine) was used. Neurons were visualized using infrared differential interference contrast (IR-DIC) microscopy (Olympus, BX51W1) with an upright microscope digital camera.” left out

[1] = test system: low-threshold T-type Ca2+ channels; test: T type current recording in TRN neurons; assay type: cell-based, mice; conditions: in the presence of LY379268
Method: (§2) For conducting slice electrophysiology analysis, whole-cell patch-clamp recordings were performed using horizontal slices for the rebound bursting assays and angled-coronal thalamocortical slices for the synaptic optogenetics experiments (Agmon et al., 1991). 21-35 day old male C57BL6 mice and Ptchd1 Y/− (knockout) mice were used. Animals were transcardially perfused under isoflurane anesthesia with an ice-cold cutting solution (194 mM Sucrose, 30 mM NaCl, 4.5 mM KCl, 1.2 mM NaH2PO4, 10 mM Glucose, 2 mM MgCl2, 0.2 mM CaCl2, and 26 mM NaHCO3). Mice were then decapitated and the brains were carefully dissected out. Both cerebellum and olfactory bulb were removed from the brain and were placed and glued onto the stage of a Leica Vibratome with the ventral surface down and the pial surface towards the blade. […]
(§3) The channel conductance of SK channels and low-threshold T-type Ca2+ channels at different holding membrane potentials ranging from −80 mV to −50 mV in the presence or absence of SK channel blockers was evaluated in order to further determine how the activation of mGluR2/3 in TRN neurons enhanced the rebound bursting.

SK channels = test: SK current recording in TRN neurons; assay type: cell-based, mice; conditions: in the presence of LY379268
Method: as §2, §3

thalamo-TRN synapses = test: Optogenetically evoked EPSCs in patched TRN neurons, thalamo-TRN pathway; assay type: cell-based, mice; conditions: patched TRN neurons, LY379268 bath application
Method: as §1, with “camera. […]” for “camera.”
After allowing 1-2 weeks for mcherry-dflox.hChR2.EF1.AAV1 expression, acute somatosensory thalamocortical or horizontal brain slices were freshly obtained for in vitro recording and optogenetic stimulation (250 um thick, thalamocortical slices containing TRN from angled-coronal sections; Agmon and Connors, 1991) for optogenetic analysis. In brief, patch clamp recordings in voltage clamp configuration were performed while the Cortico-TRN or Thalamic-TRN pathway was activated by applying a blue LED (400-450 nm) light pulses (Lumen 300-LED Fluorescence Excitation Illumination System). For synaptic stimulation, neurons were held at −70 mV while 0.1-1.5 ms flashes were delivered directly to the recorded cell soma delivered through the 40× water immersion objective. […]

TRN neurons = test: Spontaneous EPSC recordings from TRN neurons, Ptchd1 KO mice; assay type: cell-based; conditions: LY379268, with PTX
Method: as §1, with “Patch recording pipettes were pulled using a Flaming/Brown micropipette puller (Sutter Instruments) and Borosilicate glass (KG33, King Precision Glass). The DC resistances were ˜4-6 MΩ. Potassium methanesulfonate based internal solution (140 mM KMeSO3; 10 mM KCl; 10 mM HEPES; 0.1 mM EGTA; 4 mM Mg-ATP; 0.2 mM Na-GTP; 10 mM hosphocreatine) was used. Neurons were visualized using infrared differential interference contrast (IR-DIC) microscopy (Olympus, BX51W1) with an upright microscope digital camera.” left out

N[C@@]1(C(=O)O)COC2C(C(=O)O)C21 (stereo in doubt) [LY379268, (1R,4R,5S,6R)-4-Amino-2-oxabicyclo[3.1.0] hexane-4,6-dicarboxylic acid]
rebound burst firing, occlusion experiment (WT TRN neurons; LY379268 applied in the presence of (after pretreatment with) ML337): no change in repetitive bursting; also recorded: occluded in the presence of ML337 | number of rebound burst firings (WT TRN neurons; WT TRN neurons, LY379268 1 μM, after somatic hyperpolarization pulse, holding potentials −80 mV to −50 mV): significant increase in the repetitive rebound bursting; also recorded: increase in the number of rebound burst firings; also recorded: Significant changes were detected in a membrane holding potentials between −70 mV and −60 mV; also recorded: Significant changes were detected at membrane holding potentials as indicated | number of rebound burst firings (Ptchd1 KO TRN neurons): significantly increased the number of rebound repetitive bursting; also recorded: significantly increased the number of rebound burst firings; also recorded: Significant changes were found between −72 mV and −67 mV holding potential | current mediated by T (max inward currents, T-type Ca2+ channel conductance) [1]: significantly increased | current mediated by SK (max outward currents, SK channel conductance) (SK channels): significantly increased | thalamo-TRN evoked EPSCs (thalamo-TRN synapses): did not affect the thalamo-TRN evoked EPSCs | frequency of sEPSCs (TRN neurons): significantly reduced the frequency
